Measured values reported in US20240150293A1, “SPIROCYCLOHEXANE DERIVATIVES, PHARMACEUTICAL COMPOSITIONS CONTAINING THEM AND THEIR USES AS ANTI-APOPTOTIC INHIBITORS” (LES LABORATOIRES SERVIER, priority 2021, published 2024).
Like-named read-outs stand apart in the source and are kept apart here.

What was measured:
[1] = biological target: Cy5-labelled Mcl1 (amino acids 171-321) C286S protein (UniProtKB Q07820) (Homo sapiens (Human), UniProt Q07820, C286S); assay: Inhibition of Mcl-1 by the fluorescence quenching assay (Example A, Method B); assay type: binding
In short: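 Cy5-labelled Mcl1 171-321 C286S (1 nM) quenched by TQ5WS-labelled PUMA peptide (10, 20 or 400 nM); displacement raises fluorescence (Ex 620/Em 680 nm). Buffer 10 mM HEPES, 150 mM NaCl, 0.05% Tween 20, pH 7.4, 5% DMSO; 2 h at room temperature, 11-point curves, IC50 converted to Ki (cKi/eKi).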

[2] = tested on: H929 multiple myeloma tumor line; assay: In vitro cytotoxicity, MTT assay (Example B, Method A); assay type: cell-based; conditions: H929 cells, 48 hours exposure, read-out: C50
Protocol: The cytotoxicity studies were carried out on the H929 multiple myeloma tumor line.
The cells are distributed onto microplates and exposed to the test compounds for 48 hours. The cell viability is then quantified by a colorimetric assay, the Microculture Tetrazolium Assay (Carmichael et al, Cancer Res. 1987, 47, 939-942).
The results are expressed in C50 which means concentration corresponding to […] of effect/inhibition.

Cy5-labelled Mcl1 (amino acids 171-321) C286S protein, sequence (Q07820 171-321 C286S): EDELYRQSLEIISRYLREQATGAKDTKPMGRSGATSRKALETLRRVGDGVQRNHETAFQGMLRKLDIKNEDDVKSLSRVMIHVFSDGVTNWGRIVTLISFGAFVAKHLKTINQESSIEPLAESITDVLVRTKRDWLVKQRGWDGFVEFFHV

Ki [1] [µM]	SMILES	IC50 [2] [µM]	IC50 ([2]; Homo sapiens, NCI-H929, 48 h) [µM]
0.00185	C[C@@H](COc1ccnc2c1C(F)CCC2)C[C@H]1Cc2ccccc2[C@]12CC[C@@](Nc1cccc(Cl)c1)(C(=O)O)CC2 (single isomer, unassigned) [Example 686]	0.442	
0.00294	CC[C@@H]1CCCc2nccc(OC[C@H](C)C[C@H]3Cc4ccccc4[C@]34CC[C@@](Nc3cccc(Cl)c3)(C(=O)O)CC4)c21 [Example 657, (1r,2′S,4S)-4-(3-chloroanilino)-2′-[(2R)-3-{[(5R)-5-ethyl-5,6,7,8-tetrahydroquinolin-4-yl]oxy}-2-methylpropyl]-2′,3′-dihydrospiro[cyclohexane-1,1′-indene]-4-carboxylic acid]		0.139
0.000305	C[C@@H](COc1ccnc2c1[C@H](C)CCC2)CC1=Cc2cc(F)ccc2[C@]12CC[C@@](Nc1cccc(Cl)c1)(C(=O)O)CC2 [Example 767, (1r,4R)-4-(3-chloroanilino)-5′-fluoro-2′-[(2R)-2-methyl-3-{[(5R)-5-methyl-5,6,7,8-tetrahydroquinolin-4-yl]oxy}propyl]spiro[cyclohexane-1,1′-indene]-4-carboxylic acid]		0.0788
0.0296	C[C@@H](COc1ccnc2c1[C@H](CC(F)(F)F)CCC2)C[C@H]1Cc2ccccc2[C@]12CC[C@@](Nc1cccc(Cl)c1)(C(=O)O)CC2 [Example 695, (1r,2′S,4S)-4-(3-chloroanilino)-2′-[(2R)-2-methyl-3-{[(5S)-5-(2,2,2-trifluoroethyl)-5,6,7,8-tetrahydroquinolin-4-yl]oxy}propyl]-2′,3′-dihydrospiro[cyclohexane-1,1′-indene]-4-carboxylic acid]		3.24
0.00115	C[C@@H](COc1ccnc2c1[C@H](C(F)(F)F)CCC2)C[C@H]1Cc2ccccc2[C@]12CC[C@@](Nc1cccc(Cl)c1)(C(=O)O)CC2 [Example 699, (1r,2′S,4S)-4-(3-chloroanilino)-2′-[(2R)-2-methyl-3-{[(5R)-5-(trifluoromethyl)-5,6,7,8-tetrahydroquinolin-4-yl]oxy}propyl]-2′,3′-dihydrospiro[cyclohexane-1,1′-indene]-4-carboxylic acid]		0.115
0.806	CC(CC1Cc2ccccc2[C@]12CC[C@@](Nc1cccc(Cl)c1)(C(=O)O)CC2)C1CCC(=O)CC1 (single isomer, unassigned) [Example 573, (1r,4r)-4-(3-chloroanilino)-2′-[2-(4-oxocyclohexyl)propyl]-2′,3′-dihydrospiro[cyclohexane-1,1′-indene]-4-carboxylic acid]	30	
0.00149	C[C@@H](COc1ccnc2c1[C@H](C)CCC2)C[C@H]1Cc2ccccc2[C@]12CC[C@@](Nc1cc(F)cc(Cl)c1)(C(=O)O)CC2 [Example 704, (1r,2′S,4S)-4-(3-chloro-5-fluoroanilino)-2′-[(2R)-2-methyl-3-{[(5R)-5-methyl-5,6,7,8-tetrahydroquinolin-4-yl]oxy}propyl]-2′,3′-dihydrospiro[cyclohexane-1,1′-indene]-4-carboxylic acid]		0.24
0.00127	C[C@@H](COc1ccnc2c1[C@H](C)CCC2)C[C@@H]1Cc2ccccc2[C@]12CC[C@@](Nc1ccc(F)c(Cl)c1)(C(=O)O)CC2 [Example 703, (1r,2′R,4R)-4-(3-chloro-4-fluoroanilino)-2′-[(2R)-2-methyl-3-{[(5R)-5-methyl-5,6,7,8-tetrahydroquinolin-4-yl]oxy}propyl]-2′,3′-dihydrospiro[cyclohexane-1,1′-indene]-4-carboxylic acid]		0.169
0.00768	COCCOc1ccc2c(c1)[C@]1(CC[C@@](Nc3cccc(Cl)c3)(C(=O)O)CC1)[C@H](C[C@@H](C)COc1ccnc3ccsc13)C2 [Example 729, (1r,2′R,4R)-4-(3-chloroanilino)-6′-(2-methoxyethoxy)-2′-{(2R)-2-methyl-3-[(thieno[3,2-b]pyridin-7-yl)oxy]propyl}-2′,3′-dihydrospiro[cyclohexane-1,1′-indene]-4-carboxylic acid]		0.864
0.00152	C[C@@H](COc1ccnc2c1[C@H](C)CCC2)C[C@@H]1Cc2cc(F)ccc2[C@]12CC[C@@](Nc1cccc(Cl)c1)(C(=O)O)CC2 [Example 769, (1r,2′R,4R)-4-(3-chloroanilino)-5′-fluoro-2′-[(2R)-2-methyl-3-{[(5R)-5-methyl-5,6,7,8-tetrahydroquinolin-4-yl]oxy}propyl]-2′,3′-dihydrospiro[cyclohexane-1,1′-indene]-4-carboxylic acid]		0.125
0.0285	C[C@@H](COc1ccnc2c1[C@@H](C)C(F)(F)CC2)C[C@H]1Cc2ccccc2[C@]12CC[C@@](Nc1cccc(Cl)c1)(C(=O)O)CC2 [Example 701, (1r,2′S,4S)-4-(3-chloroanilino)-2′-[(2R)-3-{[(5R)-6,6-difluoro-5-methyl-5,6,7,8-tetrahydroquinolin-4-yl]oxy}-2-methylpropyl]-2′,3′-dihydrospiro[cyclohexane-1,1′-indene]-4-carboxylic acid]		1.56
0.0189	CC[C@H]1CCc2nccc(OC[C@H](C)C[C@H]3Cc4ccccc4[C@]34CC[C@@](Nc3cccc(Cl)c3)(C(=O)O)CC4)c21 [Example 613, (1r,2′S,4S)-4-(3-chloroanilino)-2′-[(2R)-3-{[(5S)-5-ethyl-6,7-dihydro-5H-cyclopenta[b]pyridin-4-yl]oxy}-2-methylpropyl]-2′,3′-dihydrospiro[cyclohexane-1,1′-indene]-4-carboxylic acid]		2.36
0.0231	Cc1cc(OC[C@H](C)C[C@H]2Cc3ccccc3[C@]23CC[C@@](Nc2cccc(Cl)c2)(C(=O)O)CC3)c2c(n1)CCCC2C (single isomer, unassigned) [Example 663]	3.43	
0.00274	C[C@@H](COc1ccnc2c1CCC[C@H]2O)C[C@H]1Cc2ccccc2[C@]12CC[C@@](Nc1cccc(Cl)c1)(C(=O)O)CC2 [Example 668, (1r,2′S,4S)-4-(3-chloroanilino)-2′-[(2R)-3-{[(8R)-8-hydroxy-5,6,7,8-tetrahydroquinolin-4-yl]oxy}-2-methylpropyl]-2′,3′-dihydrospiro[cyclohexane-1,1′-indene]-4-carboxylic acid]		0.355
0.000463	C[C@@H](COc1ccnc2c1[C@H](C)CCC2)CC1Cc2c(F)cccc2[C@]12CC[C@@](Nc1cccc(Cl)c1)(C(=O)O)CC2 (single isomer, unassigned) [Example 743]	0.11	
0.073	O=C(O)[C@]1(Nc2cccc(Cl)c2)CC[C@]2(CC1)C(CC(COc1ccnc3ccsc13)Cc1ccccc1)=Cc1ccccc12 (single isomer, unassigned) [Example 559, (1r,4r)-2′-{2-benzyl-3-[(thieno[3,2-b]pyridin-7-yl)oxy]propyl}-4-(3-chloroanilino)spiro[cyclohexane-1,1′-indene]-4-carboxylic acid]		30
0.00123	C[C@@H](COc1ccnc2c1[C@H](C)CCC2)CC1Cc2c(F)cccc2[C@]12CC[C@@](Nc1cccc(Cl)c1)(C(=O)O)CC2 (single isomer, unassigned) [Example 742]		0.0596
0.00573	C[C@@H](COc1ccnc2c1[C@@H](C)CC[C@H]2C)C[C@H]1Cc2ccccc2[C@]12CC[C@@](Nc1cccc(Cl)c1)(C(=O)O)CC2 (single isomer, unassigned) [Example 659, (1r,2′S,4S)-4-(3-chloroanilino)-2′-[(2R)-3-{[(5R*,8S*)-5,8-dimethyl-5,6,7,8-tetrahydroquinolin-4-yl]oxy}-2-methylpropyl]-2′,3′-dihydrospiro[cyclohexane-1,1′-indene]-4-carboxylic acid]	0.559	
0.0126	C[C@@H](COc1ccnc2c(Cl)cn(C)c12)C[C@H]1Cc2ccccc2[C@]12CC[C@@](Nc1cccc(Cl)c1)(C(=O)O)CC2 [Example 631, (1r,2′S,4S)-4-(3-chloroanilino)-2′-{(2R)-3-[(3-chloro-1-methyl-1H-pyrrolo[3,2-b]pyridin-7-yl)oxy]-2-methylpropyl}-2′,3′-dihydrospiro[cyclohexane-1,1′-indene]-4-carboxylic acid]		3.17
0.0446	CC(C)(COc1ccnc2sccc12)CC1Cc2ccccc2C12CCC(Nc1cccc(Cl)c1)(C(=O)O)CC2 (single isomer, unassigned) [Example 622, (1r,4r)-4-(3-chloroanilino)-2′-{2,2-dimethyl-3-[(thieno[2,3-b]pyridin-4-yl)oxy]propyl}-2′,3′-dihydrospiro[cyclohexane-1,1′-indene]-4-carboxylic acid]		17.1
0.0224	CC[C@@H](COc1ccncc1)C[C@H]1Cc2ccccc2[C@]12CC[C@@](Nc1cccc(Cl)c1)(C(=O)O)CC2 [Example 544, (1r,2′S,4S)-4-(3-chloroanilino)-2′-[(2R)-2-{[(pyridin-4-yl)oxy]methyl}butyl]-2′,3′-dihydrospiro[cyclohexane-1,1′-indene]-4-carboxylic acid]		8.32
0.000703	Cc1cc2c(cc1C)[C@]1(CC[C@@](Nc3cccc(Cl)c3)(C(=O)O)CC1)[C@H](C[C@@H](C)COc1ccnc3c1[C@H](C)CCC3)C2 [Example 855, (1r,2′R,4R)-4-(3-chloroanilino)-5′,6′-dimethyl-2′-[(2R)-2-methyl-3-{[(5R)-5-methyl-5,6,7,8-tetrahydroquinolin-4-yl]oxy}propyl]-2′,3′-dihydrospiro[cyclohexane-1,1′-indene]-4-carboxylic acid]		0.0508
